Results taken from patent US12116594B2, “Methods for differentiating cells” (BOND UNIVERSITY LTD, priority 2015, dated 2024).
Entries after “also recorded” stand apart in the source; their conditions may differ.

Test system: Mell hESC
Test: Differentiation assay for small molecule differentiation of hESC to hESC-RPEC; ANEB outgrowths scored for % putative RPE morphology at day 14
Format: cell-based, human
Description: FIG. 31 Establishment of differentiation conditions for hESC-RPEC differentiation using small molecules. (A): Differentiation assay for small molecule differentiation of Mell hESC to hESC-RPEC. […] (B): Optimal ANEB size determined between 1000-1500 cells/body. (C): Optimal window for both seeding ANEBs and switching to RDM is day 6. […] For each experiment, ANEB outgrowths were scored for % putative RPE morphology at day 14. Differentiation is represented as heat map scores (0=0%, 1=5-10%, 2=10-15%, 3=15-25%, 5=25-40%, 6=40-55%, 7=55-70%, 8=80+%).
HESC cultures were prepared for differentiation by supplementing mTeSR™1 with 10 uM Y-27632 (Rock inhibitor) (Sigma) for at least one hour prior to single cell dissociation with TrypLE™ Express (Gibco), counted and replated onto plates pre-coated with reduced growth factor Matrigel™ (RGFMG) (Corning) at high density (150,000 cells/cm2) in mTeSR™1 medium, supplemented with 10 uM Y-27632 and cultured overnight. The following day, cultures were refed fresh mTeSR™1 medium, without Rock inhibitor cultured for another 18-48 hours, or until cell cultures were nearly confluent (FIG. 2). Subsequently, cells were cultured in Primary Differentiation Medium (PDM) (containing 100 nM LDN193189, 10 uM SB431542, 5 uM CKI-7, and supplemented with 10 mM Nicotinamide) for 45 hours, before being further supplemented with 10 uM Rock inhibitor for an hour (FIG. 3 A). Differentiating cultures were single cell dissociated using TryPLE™ Express, re-suspended in PDM supplemented with 10 mM Nicotinamide and 10 uM Rock inhibitor, and formed into 3D cell aggregates of approximately 1500 cells/aggregate, using the AggreWellP400 (StemCell Technologies) (FIG. 3B), and cultured overnight. After 12-18 hours, the cell aggregates. The cell aggregates were cultured in suspension in Corning® Costar® Ultra-Low attachment 6-well plates (Corning) in primary differentiation medium (with 10 mM Nicotinamide), until day 4 or day 6, to differentiate as generate 3D aggregates of hESC-derived eyefield cells (ANEBs) to eyefield progenitor cells (FIG. 4A). At day 6, ANEBs were re-seeded onto RGFMG coated plates in RPEC Differentiation Medium (RDM) (containing 250 nM IDE-2 and 3 uM CHIR99021). ANEBs attached to the plate and the outgrowths were assessed for the appearance of immature RPE-like morphology (FIG. 8). ANEB outgrowths were cultured in RDM until day 14. Some putative hESC-RPEC cultures were maintained in an undisrupted form on the plates, while others were single cell dissociated and re-plated onto RGFMG at 150,000 cells/cm2 and cultured in Base Medium 2 (BM2), or RPEC Culture Medium (RCM), both supplemented with 10 uM Y-27632 until medium change the following day. hESC-RPEC cultures that are not dissociated may be maintained in BM2, without further supplementation, or in RMM, to generate mature hESC-RPECs within 21-28 days of the differentiation process (FIG. 9).
The hESC methods of the invention relating to the differentiation of human SCs towards the eyefield progenitor cells, that are Rax+ on day 4 and day 6 (FIG. 6), which has been confirmed by qRT-PCR expression of Rax, LHX2, Pax6(−5a) (FIG. 7). […] FIG. 31 A is a summary of experimental conditions designed to test the ability of each molecule to contribute to efficient RPEC differentiation within a 14-day period. Primary differentiation was from day 0-day 6, followed by secondary differentiation, or RPE differentiation, from day 6 to day 14. Briefly, hESC differentiation to RPE in the absence of LDN is low. […] The role of CKI-7 on differentiation efficiency was tested in combination with a variety of combinations to determine the optimal signalling requirements for differentiation. The small molecule IDE-2 was tested for its ability to functionally replace Activin A in a context for which it had not previously been tested. […] Although the effect of NIC on hESC-RPEC differentiation was positive during differentiation towards to the eyefield, but negative after. […]

[1] = molecule used in secondary (RPE) differentiation conditions, day 6 to day 14
[2] = molecule used in primary differentiation conditions, day 0-day 6

Structure (SMILES)	hESC-RPEC differentiation (% putative RPE morphology at day 14) [1]	hESC-RPEC differentiation (% putative RPE morphology at day 14) [2]	hESC-RPEC differentiation by day 14 (combined use of IDE-2 with the GSK3b inhibitor, secondary differentiation day 6 to day 14)
Cc1c[nH]c(-c2cnc(NCCNc3ccc(C#N)cn3)nc2-c2ccc(Cl)cc2Cl)n1 [CHIR, CHIR99021]	essential for highly efficient RPEC differentiation	–	–
NCCNS(=O)(=O)c1ccc(Cl)c2ccncc12 [CKI-7]	–	greatly enhanced; also recorded: further enhanced	–
O=C(O)CCCCCC(=O)NN=C1CCCC1 [IDE-2]	enhances RPEC differentiation	–	highest degree of hESC-RPEC differentiation
c1ccc2c(-c3cnn4cc(-c5ccc(N6CCNCC6)cc5)cnc34)ccnc2c1 [LDN, LDN193189]	–	improved differentiation	–
NC(=O)c1cccnc1 [NIC, nicotinamide]	suppresses RPEC differentiation; also recorded: negative	positive	–
